According to PubChem BioAssay (NCI):
“And” between values parts separate entries of the source, which are not always exact repeats. Equal entries are not always repeated.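 Grown in 96-well plates, cells were treated for 48 hours with each compound at five concentrations. Insufficient inhibition: endpoint recorded as highest concentration tested. GI50: concentration for 50% inhibition of growth. The concentration for full growth arrest is given as TGI.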

Tests used:
Test in all cases: NCI tumour cell line growth inhibition, 48 h
[1] = system: A549 NSCLC
[2] = system: HCC-2998 colon
[3] = system: HCT-116 colon
[4] = system: LOX IMVI melanoma
[5] = system: MALME-3M melanoma
[6] = system: NCI-H23 lung
[7] = system: SK-OV-3 ovarian
[8] = system: SW-620 colon
[9] = system: U251 CNS
[10] = system: UACC-257 melanoma

Row | Structure (SMILES) | TGI [1] | TGI [2] | TGI [3] | TGI [4] | TGI [5] | TGI [6] | TGI [7] | TGI [8] | TGI [9] | TGI [10] | GI50 [2] | GI50 [3] | GI50 [4] | GI50 [5] | GI50 [6] | GI50 [7] | GI50 [8] | GI50 [10] | GI50 [1] | GI50 [9]
1 | COCN1CCN=c2c1c1c3c(c4ccccc4n23)CCC1 | > 100 µM | > 100 µM | > 100 µM | > 100 µM | > 100 µM | > 100 µM | > 100 µM | > 100 µM | > 100 µM | > 100 µM |  |  |  |  |  |  |  |  |  | 
2 | COC(=O)c1ccc(CCc2cc(O)ccc2O)cc1 | > 61.3 µM | 59.6 µM | 24 µM | 22.7 µM | 22.5 µM | > 54.9 µM | > 78 µM | 29.7 µM | 33.2 µM | 32.8 µM |  |  |  |  |  |  |  |  |  | 
3 | C[N+](C)([O-])CCCNc1c2ccccc2nc2cccc([N+](=O)[O-])c12 | 0.795 µM | 0.393 µM | 1.02 µM | 6.59 µM | 0.419 µM | 0.676 µM | > 29.4 µM |  | 2.24 µM | 2.25 µM |  |  |  |  |  |  |  |  |  | 
4 | Cc1ccc(NC(=S)Nc2c(C)n(C)n(-c3ccccc3)c2=O)cc1 | > 100 µM | > 100 µM | > 100 µM | > 100 µM | > 100 µM | > 100 µM | > 100 µM | > 100 µM | > 100 µM | > 100 µM |  |  |  |  |  |  |  |  |  | 
5 | COc1ccc(Oc2nc3ccc(C(F)(F)F)cc3nc2-c2ccccc2)cc1 |  | > 100 µM | > 100 µM | > 100 µM | > 100 µM |  | > 100 µM | > 100 µM | > 100 µM | > 100 µM |  |  |  |  |  |  |  |  |  | 
6 | Fc1ccc(C2CC(c3cccc(Nc4ccncc4)c3)=NN2c2cc(Cl)cc(Cl)c2)cc1 (centres undefined) |  | 2.96 µM | 3.15 µM | 2.94 µM | 3.41 µM | 3.19 µM | 3.54 µM | 3.29 µM |  |  | 1.6 µM | 1.66 µM | 1.6 µM | 1.72 µM | 1.7 µM | 1.79 µM | 1.75 µM |  |  | 
7 | O=C1CSC2=NCC3(NN12)c1ccccc1-c1ccccc13 | > 10 µM | > 10 µM | > 10 µM | > 10 µM | > 10 µM | > 10 µM | > 10 µM | > 10 µM |  | > 10 µM |  |  |  |  |  |  |  |  |  | 
8 | S=c1nc2[nH]c3ccc(Br)cc3c2n[nH]1 | > 100 µM | > 100 µM | > 100 µM | 79.7 µM | > 100 µM |  | > 100 µM | > 100 µM | > 100 µM | > 100 µM |  |  |  |  |  |  |  |  |  | 
9 | CN(C)CCCNc1c2ccccc2nc2cccc([N+](=O)[O-])c12 | 0.0121 µM and 0.0944 µM | 0.00194 µM and 0.0131 µM | 0.0132 µM and 0.0316 µM |  | 0.00221 µM and 0.0136 µM |  | 0.0921 µM and 0.0723 µM |  | 0.0143 µM | 0.00749 µM and 0.0452 µM |  |  | 0.019 µM |  |  | 0.0204 µM |  | 0.0207 µM |  | 
10 | O=C(Nc1nnc(-c2ccccc2)o1)C(SC(=S)N1CCOCC1)c1ccccc1 (centres undefined) | > 100 µM |  | > 100 µM | > 100 µM | > 100 µM | 69 µM | > 100 µM | > 100 µM | > 100 µM | > 100 µM |  |  |  |  |  |  |  |  |  | 
11 | COc1ccccc1NC(=S)N/N=C(/C)c1ccccn1 | > 55.3 µM | > 100 µM | 13.8 µM | 67.2 µM | 16.7 µM | > 100 µM | > 89.2 µM | > 100 µM | > 100 µM |  |  |  |  |  |  |  |  |  |  | 
12 | CC(NC(=O)OCc1ccccc1)NC(=O)C(CC(=O)OC(C)(C)C)NC(=O)OC(C)(C)C (centres undefined) | > 100 µM |  | > 100 µM | > 100 µM | > 100 µM | > 100 µM | > 100 µM | > 100 µM | > 100 µM | > 100 µM |  |  |  |  |  |  |  |  |  | 
13 | O=C(NNc1cn[nH]c(=O)c1Cl)/C(=C/c1ccc2c(c1)OCO2)NC(=O)c1ccccc1 | > 100 µM | > 100 µM | > 100 µM | > 100 µM |  | > 100 µM | > 100 µM | > 100 µM | > 100 µM | > 100 µM |  |  |  |  |  |  |  |  |  | 
14 | CCOC(=O)CCc1c(C(=O)OCC)[nH]c(/C=C2\NC(=O)C(C)=C2CC)c1C | > 100 µM |  | > 100 µM | > 100 µM | 41.1 µM |  | 48.3 µM |  | 33.9 µM |  |  |  |  |  |  |  |  |  |  | 
15 | COc1ccc(-c2nc(-c3cc4ccccc4oc3=O)cs2)cc1 | > 100 µM | > 100 µM | > 100 µM | > 100 µM | > 100 µM |  | 91.6 µM | > 100 µM | 47.4 µM | > 100 µM |  |  |  |  |  |  |  |  |  | 
16 | CCc1nn(S(=O)(=O)c2ccc(C)cc2)c2c1CS(=O)(=O)CC2 | > 100 µM |  | > 100 µM |  |  | > 100 µM | > 100 µM | > 100 µM | > 100 µM | > 100 µM |  |  |  |  |  |  |  |  |  | 
17 | CCOC(=O)c1c2c(n3ccc(NC(=O)OC(C)(C)C)cc13)C(=O)c1ncccc1C2=O | 1.25 µM |  |  |  | 1.27 µM | 0.669 µM | 1.48 µM |  | 1.25 µM | 0.919 µM |  |  |  | 0.0997 µM | 0.147 µM | 0.236 µM |  | 0.265 µM | 0.186 µM | 0.0465 µM
18 | CN1C/C(=C\c2ccc(Cl)cc2)C(=O)/C(=C/c2ccc(Cl)cc2)C1 | > 100 µM | > 100 µM | 0.482 µM | 0.612 µM | > 100 µM | > 22.3 µM |  | > 100 µM | 2.46 µM | 2.44 µM |  |  |  |  |  |  |  |  |  | 
19 | CO/C(=N\N=C\c1ccc(Cl)cc1Cl)c1ccncc1 | > 10 µM |  | > 10 µM | > 10 µM | > 10 µM | > 10 µM |  | > 10 µM | > 10 µM | > 10 µM |  |  |  |  |  |  |  |  |  | 
20 | N=S(=O)(c1ccccc1)c1ccccc1[N+](=O)[O-] (centres undefined) | > 100 µM | > 100 µM | > 100 µM |  | > 100 µM | > 100 µM | > 100 µM | > 100 µM | > 100 µM | > 100 µM |  |  |  |  |  |  |  |  |  | 
21 | O=C1CCC2(CC1CCSc1ccccc1)OCCO2 (centres undefined) | > 100 µM | > 100 µM |  | > 100 µM | > 100 µM | > 100 µM | > 100 µM | > 100 µM | > 100 µM | > 100 µM |  |  |  |  |  |  |  |  |  | 
